Test systems include A498 renal; BT-549 breast; HOP-92 NSCLC; HS 578T breast; K-562 leukemia; M14 melanoma; MDA-MB-435; NCI-H23 lung; SK-OV-3 ovarian; UACC-257 melanoma.
Holding throughout (assay): NCI anticancer screen, dose series, 48 h

Several values for one entry are separate records, joined by “and”; a condition that tells them apart may be missing. Equal entries are not always repeated.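 Tested at 5 concentrations; 48 h exposure; 96-well plates; endpoints linearly interpolated, else capped at highest concentration. GI50 marks 50% less growth. TGI marks complete inhibition of growth.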

`COc1ccc(C2c3c(-c4ccccc4)nn(-c4ccccc4)c3Oc3ncn4nc(CC#N)nc4c32)cc1OC` (stereo not given): the GI50 was > 100 µM and 10.8 µM in the test on A498 renal; 19.9 µM and 8.82 µM with BT-549 breast; 17.6 µM and 1.96 µM in the test with HOP-92 NSCLC; 55.6 µM and 6.33 µM with M14 melanoma; > 100 µM with MDA-MB-435; 47.2 µM and 19.5 µM in the test with NCI-H23 lung. Further, the TGI in the test with A498 renal is > 100 µM and 31.3 µM; in the test with BT-549 breast it was 59.2 µM and > 41.6 µM; in the test with HS 578T breast it was 59.1 µM and 6.86 µM; in the test with K-562 leukemia it was > 100 µM; with M14 melanoma, > 100 µM and 13.3 µM; in the test on MDA-MB-435 it was > 100 µM. Further, the TGI was > 100 µM in the test with NCI-H23 lung; > 100 µM and 17.9 µM with SK-OV-3 ovarian; > 100 µM and 40.4 µM in the test with UACC-257 melanoma.

Consider `Nc1c2ccccc2nc2ccccc12` (tested in a mixture with another compound), for which the GI50 in the test on A498 renal was 1.12 µM; in the test on BT-549 breast, 4.42 µM; in the test on HOP-92 NSCLC, 1.84 µM; in the test on HS 578T breast, 3.06 µM; in the test on K-562 leukemia, 3.81 µM; with M14 melanoma, 1.87 µM. Also, the GI50 in the test with MDA-MB-435 was 2.57 µM; with NCI-H23 lung it was 1.94 µM; in the test on SK-OV-3 ovarian it was 2.39 µM; in the test with UACC-257 melanoma, 1.87 µM. The TGI in the test on A498 renal turned out to be 2.62 µM; in the test with BT-549 breast, 17.6 µM; with HOP-92 NSCLC, 6.98 µM; in the test with HS 578T breast it was 17.4 µM; in the test on K-562 leukemia it was 12.1 µM; with M14 melanoma, 3.92 µM. In addition, the TGI came out at 9 µM with MDA-MB-435, 5.68 µM in the test on NCI-H23 lung, 10.5 µM in the test with SK-OV-3 ovarian and 4.48 µM in the test on UACC-257 melanoma.

Regarding `CC#CC(=O)N1CC[C@@H](n2c(=O)n(-c3ccc(Oc4ccccc4)cc3)c3c(N)ncnc32)C1`, the GI50 in the test with A498 renal is 6.38 µM; with BT-549 breast it was 14.5 µM; in the test on HOP-92 NSCLC, 16.4 µM; in the test with HS 578T breast it was 22.5 µM; in the test on MDA-MB-435, 27.4 µM; in the test with NCI-H23 lung, 36.8 µM. The GI50 in the test on SK-OV-3 ovarian was 40.6 µM; in the test with UACC-257 melanoma, 51.8 µM. Also, the TGI with A498 renal is 44.6 µM; in the test with BT-549 breast, 55 µM; in the test with HOP-92 NSCLC it was 68.1 µM; with HS 578T breast, > 100 µM; with MDA-MB-435, > 100 µM; in the test on NCI-H23 lung it was > 100 µM. The TGI in the test with SK-OV-3 ovarian and with UACC-257 melanoma was > 100 µM in each case.

With `Fc1cccc(-c2[nH]nc3nc(Nc4cccnc4)sc23)c1`, the GI50 with A498 renal is > 100 µM; with BT-549 breast, 14.9 µM; in the test with HOP-92 NSCLC, > 100 µM; in the test with K-562 leukemia, 0.421 µM; in the test on M14 melanoma it was 11.3 µM; in the test with MDA-MB-435, 0.28 µM. For the same compound, the GI50 in the test on NCI-H23 lung was 23 µM; in the test on SK-OV-3 ovarian, > 100 µM; in the test with UACC-257 melanoma it was > 100 µM. In addition, the TGI in the test with A498 renal is > 100 µM; in the test with BT-549 breast, 47 µM; in the test on HOP-92 NSCLC, > 100 µM; with K-562 leukemia, > 100 µM; in the test on M14 melanoma, > 100 µM; with MDA-MB-435, > 100 µM. For the same compound, the TGI in the test on NCI-H23 lung, in the test with SK-OV-3 ovarian and in the test with UACC-257 melanoma was > 100 µM each time.

Turning to `Cc1ccc2c(c1)C=CC(C#N)N2C(=O)Oc1ccccc1` (stereo not given), the TGI was 55.4 µM with A498 renal; 48.2 µM in the test on BT-549 breast; 64.7 µM with HOP-92 NSCLC; > 100 µM with HS 578T breast; 64.4 µM in the test with K-562 leukemia; > 100 µM in the test on M14 melanoma. In addition, the TGI was 29.7 µM in the test with MDA-MB-435, 44.5 µM in the test on NCI-H23 lung and > 100 µM in the test with UACC-257 melanoma.

Consider `N#Cc1nn(-c2cc(=O)[nH]c3ccc(Br)cc23)c(N)c1C#N`, for which the GI50 in the test on A498 renal was > 100 µM; in the test on BT-549 breast it was > 100 µM; with HOP-92 NSCLC, > 100 µM; in the test on HS 578T breast it was 64.9 µM; with K-562 leukemia, > 100 µM; in the test on M14 melanoma, > 100 µM. The GI50 in the test with MDA-MB-435 was > 100 µM; in the test on NCI-H23 lung, 51.5 µM; in the test with SK-OV-3 ovarian, > 100 µM; in the test on UACC-257 melanoma, > 100 µM. The TGI in the test on A498 renal, in the test with BT-549 breast, in the test with HOP-92 NSCLC, with HS 578T breast, with K-562 leukemia and in the test on M14 melanoma was > 100 µM in each case. Besides, the TGI in the test with MDA-MB-435, with NCI-H23 lung, in the test on SK-OV-3 ovarian and in the test on UACC-257 melanoma was > 100 µM each time.

With `COc1cnc2c(c1)C(=O)c1c-2n(CCCNC(C)C)c(=O)c2cc([N+](=O)[O-])ccc12`, the GI50 in the test with BT-549 breast is 0.107 µM; in the test with HOP-92 NSCLC, 1.09 µM; in the test with HS 578T breast it was 0.938 µM; in the test on K-562 leukemia, 0.0443 µM; in the test on M14 melanoma, 0.0347 µM; in the test on MDA-MB-435, 0.109 µM. The GI50 in the test on NCI-H23 lung was 0.0401 µM; with SK-OV-3 ovarian, 0.0409 µM; with UACC-257 melanoma, 0.195 µM. The TGI in the test on BT-549 breast was found to be 0.314 µM; with HOP-92 NSCLC, 2.82 µM; in the test on HS 578T breast it was 3.24 µM; in the test on K-562 leukemia, 0.485 µM; in the test with M14 melanoma, 0.135 µM; with MDA-MB-435, 0.261 µM. The TGI with NCI-H23 lung is 0.285 µM; in the test on SK-OV-3 ovarian, 0.201 µM; in the test on UACC-257 melanoma, 1.44 µM.

Take `C/C(=C\c1ccn(-c2ccc(N)cc2F)n1)[C@@H]1C[C@@H]2O[C@]2(C)CCC[C@H](C)[C@H](O)[C@@H](C)C(=O)C(C)(C)[C@@H](O)CC(=O)O1`: the GI50 was 0.0943 µM with BT-549 breast; 6.51 µM in the test with HOP-92 NSCLC; 0.0606 µM in the test on HS 578T breast; 0.0197 µM with K-562 leukemia; 0.033 µM in the test on NCI-H23 lung; 0.172 µM with SK-OV-3 ovarian. Besides, in the test on UACC-257 melanoma, the GI50 is > 50 µM. The TGI in the test with BT-549 breast is > 50 µM; with HOP-92 NSCLC, > 50 µM; in the test with HS 578T breast, > 16.6 µM; in the test with K-562 leukemia it was > 50 µM; in the test with NCI-H23 lung, > 50 µM; in the test on SK-OV-3 ovarian, > 50 µM. Further, the TGI in the test with UACC-257 melanoma is > 50 µM.
